Where “and” joins values, the source holds several entries; their conditions need not be identical. Identical values can stand only once.
How the values were obtained:
[1] = test system: EAE rat model (spinal cord); assay: PET imaging in the EAE rat model; assay type: in vivo; details: for higher difference EAE vs control compared with the fluorinated compound: [11C]DPA-813 vs [18F]DPA-814, [11C]DPA-713 vs [18F]DPA-714; for higher uptake (AUC of time activity curve) in the spinal cord of EAE rats compared to CFA control: dynamic PET 60 min, peak of clinical symptoms
[2] = Ex vivo metabolite analysis (plasma and brain) in wild-type rats; set-up: species or system rat; details: i.v.
Protocol: Metabolite analysis was conducted following the method outlined in a previous study. Wistar/RccHan (WIST) rats (Inotiv, the Netherlands) received intravenous injections of either [^11C]DPA-813 (30–50 MBq) or [^18F]DPA-814 (20–30 MBq). Rats were euthanized at 5, 15, and 45 min post-injection (n = 4 per time point). Plasma was separated from blood then processed through a C18 Sep-Pak (Waters, Milford, MA, USA). After washing with 3 mL of water to isolate the polar fraction, the non-polar fraction was eluted using 2 mL of methanol and 1 mL of water and subsequently analyzed by HPLC. The brain tissue was collected and homogenized in a mixture of MeCN and H2O (50/50, 4 mL) before centrifugation (5 min, 4000 rpm, 20 °C, Hettich Universal 32). The obtained supernatant was separated from the precipitate and analyzed via HPLC. Analytical HPLC was performed using a Dionex UltiMate 3000 HPLC system equipped with Chromeleon software (version 6.8), utilizing a Gemini C18 5-µm (10 × 250 mm) column (Phenomenex, Torrance, CA, USA). All fractions were assessed for radioactivity using a Wizard Gamma counter 1470 or 2480 (Wallac/PerkinElmer, Waltham, MA, USA).

rat TSPO = target: T1, rat TSPO (Rattus norvegicus, UniProt P16257); assay: Competitive binding to rat TSPO vs [3H]PK 11195 (Eurofins assay #226700, rat heart membranes); details: vs DPA-713 / DPA-714
T1 construct: Heart of male Wistar derived rats weighing 175 ± 25 g are used to prepare peripheral benzodiazepine membrane receptors [TSPO]; tissue Eurofins Panlabs Discovery Services assay #226700; host or cells: rat heart (male Wistar derived)
Protocol: Binding affinities (Ki) to wild-type (WT) and A147T human TSPO were assessed using a previously published method. HEK-293T cells were stably transfected with WT and A147T TSPO. Membranes were isolated from each cell line using an Ultra-Turrax hand-held homogeniser. These cells have been previously validated as an in vitro model for low- and high-affinity TSPO binding. […] Non-specific binding was determined using a saturating concentration (1 µM) of non-tritiated PK 11195. This non-specific binding contributed less than 10% of total binding. Reactions were halted by filtering through a 96-well glass-fibre filter plate (Millipore), followed by eight washes with ice-cold 50 mM Tris HCl. Microscint 0 was added to the plate and resultant radioactivity-related photons were collected by a Microbeta 2450 (PerkinElmer). Ki values were fit to a competition binding curve fit on non-specific binding-corrected data using GraphPad Prism 10.0 (GraphPad). Results are presented as mean ± standard error of the mean (SEM) from at least three independent experiments. Binding affinities (Ki) to rat TSPO were measured in duplicate by Eurofins Panlabs Discovery Services (assay #226700) (Supplementary Fig. 12). Single-dose (10 µM) off-target in vitro screening was performed in duplicate by Eurofins Panlabs Discovery Services (Supplementary Table 5).
Supplementary Figure 12 Dose-response curves and binding affinities of DPA-813 and DPA-814 showing competitive binding to rat TSPO vs [^3H]PK 11195. Method from Eurofins: Heart of male Wistar derived rats weighing 175 ± 25 g are used to prepare peripheral benzodiazepine membrane receptors [TSPO] in modified Tris-HCl buffer pH 7.5. A 0.25 mg aliquot is incubated with 0.3 nM [^3H]PK 11195 for 15 minutes at 25 °C. Non-specific binding is estimated in the presence of 100 μM Dipyridamole. Membranes are filtered and washed, the filters are then counted to determine [^3H]PK 11195 specifically bound.

[3] = Ex vivo biodistribution in wild-type rats; set-up: species or system rat; details: i.v.
Protocol: Wistar/RccHan (WIST) rats from Inotiv, the Netherlands, received intravenous injections via a tail vein catheter of either [^11C]DPA-813 (30–50 MBq) or [^18F]DPA-814 (20–30 MBq). The rats were euthanized at 5, 15, and 45 min post-injection (n = 4 per time point). Blood, heart, lungs, liver, spleen, kidney, urine, bone, brain, duodenum, small intestine, skin, and muscle were collected, weighed, and their radioactivity measured using a Wizard Gamma counter 1470 or 2480 (Wallac/PerkinElmer, Waltham, MA, USA). Entire organs were collected, except for larger organs like the liver and lungs, where only a portion was dissected. The radioactivity uptake in each organ was expressed as the percentage of the injected dose per gram of tissue (%ID/g).

TSPO in human MS tissues = assay: Autoradiography on genotyped human MS brain tissue (HAB, MAB, LAB); assay type: binding
Excerpt: Brain tissues from MS patients (n = 7) were used in this study and were obtained from the MS centre of the Amsterdam University Medical Centers (AUMC). For some patient material, several brain tissues were available. The MS centre received permission from the Ethical Committee of the AUMC (Amsterdam, The Netherlands) to perform autopsies for tissue use and access to medical records for research purposes. All patients and controls, or their next of kin, had given informed consent for autopsy and use of brain tissue for research purposes.
TSPO rs6971 SNP was determined with a Taqman assay (C_2512465_20, ThermoFisher Scientific, The Netherlands). DNA was isolated from human MS brain tissue cryosections using a QIAmp mini kit from Qiagen according to the manufacturer’s recommendation. The concentration of the isolated DNA was determined on a nanodrop (NanoVue Plus, Biochrom). DNA concentration ranged from 45 to 246 µg/mL. QPCR was performed on a QuantStudio (Applied Biosystems, The Netherlands). Synthetic DNA (300 bp) for the two TSPO SNP alleles, rs6971-A, and rs6971-G, was used as a control for the Taqman assay. DNA samples were diluted 1/100 in milliQ water, and 4.5 µL was used for the QPCR. Control DNA sequences were reconstituted in 10 ng/mL in milliQ water. The final QPCR solution contained 5 µL TaqPath proAmp master mix (ThermoFisher Scientific, The Netherlands), 0.5 µL Taqman SNP, and 4.5 µL DNA. Results of the Taqman assay are summarised in Supplementary Tables 4 and Supplementary Fig. 2.
Human MS tissue cryosections (20 μm) were mounted on glass slides, air-dried, and stored at − 80 °C until needed. Prior to use, the sections were washed three times in PBS for 5 min each, then dried under an airflow. […] For blocking experiments, tissue sections were co-incubated with PK 11195 (10 µM) and the tracer. After incubation, sections were washed for 90 s three times each in ice-cold PBS and then dipped in deionized water twice. The sections were air-dried and exposed to a phosphor screen BAS-IP SR 2025 (General Electric, Eindhoven, The Netherlands). Phosphor screens were subsequently imaged using a Typhoon FLA 7000 imager (General Electric, Eindhoven, The Netherlands), and signal intensity was quantified using ImageLab software (BioRad, Lunteren, The Netherlands).

CCN(CC)C(=O)Cc1c(-c2ccc(O[11CH3])cc2)nn2c(C)cc(C)nc12 [[^11C]DPA-713, reference compound]
higher difference EAE vs control compared with the fluorinated compound [1]: 2.5 folds
higher uptake (AUC of time activity curve) in the spinal cord of EAE rats compared to CFA control [1]: 67%

Cc1cc(C)n2nc(-c3ccc(O[11CH3])cc3)c(CC(=O)N(C)c3ccccc3)c2n1 [[^11C]DPA-813]
Brain, Parent (intact tracer) ([2]; 5 min post-injection): 99.7 ± 0.1%
Plasma, Parent (Intact tracer) ([2]; 5 min post-injection): 87.9 ± 2.4%
Brain, Parent (intact tracer) ([2]; 15 min post-injection): 99.6 ± 0.3%
Plasma, Parent (Intact tracer) ([2]; 15 min post-injection): 85.5 ± 3.2%
Brain, Parent (intact tracer) ([2]; 45 min post-injection): 98.9 ± 0.9%
Plasma, Parent (Intact tracer) ([2]; 45 min post-injection): 67.2 ± 2.9% and 67%
higher affinity to rat TSPO compared to the parent compound (rat TSPO): 24 fold
Biodistribution, Blood ([3]; 5 min post-injection): 0.31 ± 0.1 %ID/g
Biodistribution, Bone ([3]; 5 min post-injection): 0.28±0.1 %ID/g
Biodistribution, Brain ([3]; 5 min post-injection): 0.41 ± 0.1 %ID/g
Biodistribution, Duodenum ([3]; 5 min post-injection): 1.44±0.2 %ID/g
Biodistribution, Heart ([3]; 5 min post-injection): 3.70±0.5 %ID/g
Biodistribution, Kidney ([3]; 5 min post-injection): 3.80±0.5 %ID/g
Biodistribution, Liver ([3]; 5 min post-injection): 1.42±0.4 %ID/g
Biodistribution, Lungs ([3]; 5 min post-injection): 29.84±3. %ID/g
Biodistribution, Skin ([3]; 5 min post-injection): 0.09±0.1 %ID/g
Biodistribution, Small intestine ([3]; 5 min post-injection): 1.04±0.4 %ID/g
Biodistribution, Tail ([3]; 5 min post-injection): 1.30±0.6 %ID/g
Biodistribution, Urine ([3]; 5 min post-injection): 0.03±0.0 %ID/g
Biodistribution, muscle ([3]; 5 min post-injection): 0.07±0.0 %ID/g
Biodistribution, spleen ([3]; 5 min post-injection): 4.62±0.6 %ID/g
Biodistribution, Blood ([3]; 15 min post-injection): 0.34±0.1 %ID/g
Biodistribution, Bone ([3]; 15 min post-injection): 0.35±0.1 %ID/g
Biodistribution, Brain ([3]; 15 min post-injection): 0.39±0.0 %ID/g
Biodistribution, Duodenum ([3]; 15 min post-injection): 1.37±0.1 %ID/g
Biodistribution, Heart ([3]; 15 min post-injection): 4.57±0.2 %ID/g
Biodistribution, Kidney ([3]; 15 min post-injection): 4.31±0.5 %ID/g
Biodistribution, Liver ([3]; 15 min post-injection): 1.69 ± 0.2 %ID/g
Biodistribution, Lungs ([3]; 15 min post-injection): 24.03±7. %ID/g
Biodistribution, Skin ([3]; 15 min post-injection): 0.10±0.0 %ID/g
Biodistribution, Small intestine ([3]; 15 min post-injection): 0.77±0.3 %ID/g
Biodistribution, Tail ([3]; 15 min post-injection): 1.18±0.1 %ID/g
Biodistribution, Urine ([3]; 15 min post-injection): 0.02±0.0 %ID/g
Biodistribution, muscle ([3]; 15 min post-injection): 0.10±0.0 %ID/g
Biodistribution, spleen ([3]; 15 min post-injection): 5.88±1.8 %ID/g
Biodistribution, Blood ([3]; 45 min post-injection): 0.27 ± 0.01 %ID/g
Biodistribution, Bone ([3]; 45 min post-injection): 0.26±0.1 %ID/g
Biodistribution, Brain ([3]; 45 min post-injection): 0.34 ± 0.1 %ID/g
Biodistribution, Duodenum ([3]; 45 min post-injection): 1.51±0.1 %ID/g
Biodistribution, Heart ([3]; 45 min post-injection): 4.28±0.3 %ID/g
Biodistribution, Kidney ([3]; 45 min post-injection): 4.20±0.6 %ID/g
Biodistribution, Liver ([3]; 45 min post-injection): 1.68±0.3 %ID/g
Biodistribution, Lungs ([3]; 45 min post-injection): 16.13±3.5 %ID/g
Biodistribution, Skin ([3]; 45 min post-injection): 0.12±0.04 %ID/g
Biodistribution, Small intestine ([3]; 45 min post-injection): 1.18±0.2 %ID/g
Biodistribution, Tail ([3]; 45 min post-injection): 1.33±0.7 %ID/g
Biodistribution, Urine ([3]; 45 min post-injection): 0.23±0.3 %ID/g
Biodistribution, muscle ([3]; 45 min post-injection): 0.12±0.03 %ID/g
Biodistribution, spleen ([3]; 45 min post-injection): 6.66±1.2 %ID/g
higher difference EAE vs control compared with the fluorinated compound [1]: 3 folds
higher uptake (AUC of time activity curve) in the spinal cord of EAE rats compared to CFA control [1]: 64%
ratio of the binding quantification [11C]DPA-813/[11C]DPA-713 (TSPO in human MS tissues; HAB human MS tissue): 1 ± 0.2
ratio of the binding quantification [11C]DPA-813/[11C]DPA-713 (TSPO in human MS tissues; LAB human MS tissue): 3
ratio of the binding quantification [11C]DPA-813/[11C]DPA-713 (TSPO in human MS tissues; MAB human MS tissue): 1.6 ± 0.1

CCN(CC)C(=O)Cc1c(-c2ccc(OCC[18F])cc2)nn2c(C)cc(C)nc12 [[^18F]DPA-714, reference compound]
higher uptake (AUC of time activity curve) in the spinal cord of EAE rats compared to CFA control [1]: 27%
